IC50 data for 33 molecules are collected here from ChEMBL document CHEMBL1154051, “Analysis of binding parameters of HIV-1 integrase inhibitors: correlates of drug inhibition and resistance” (Bioorg Med Chem, 2009).

pIC50: −log10 of the molar value.

Chain of Human immunodeficiency virus type 1 integrase (Q7ZJM1 whole entry): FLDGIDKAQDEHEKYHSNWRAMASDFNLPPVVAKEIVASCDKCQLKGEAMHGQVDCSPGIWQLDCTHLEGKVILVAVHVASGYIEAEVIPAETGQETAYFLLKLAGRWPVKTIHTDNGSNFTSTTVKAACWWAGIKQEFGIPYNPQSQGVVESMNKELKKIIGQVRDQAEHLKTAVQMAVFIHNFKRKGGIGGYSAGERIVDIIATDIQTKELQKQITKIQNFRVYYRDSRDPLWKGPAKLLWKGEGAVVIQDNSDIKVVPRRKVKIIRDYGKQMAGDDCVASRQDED

This test addresses Human immunodeficiency virus type 1 integrase (Human immunodeficiency virus 1, UniProt Q7ZJM1). In words: Inhibition of HIV1 integrase strand transfer activity.
`O=C(NCc1ccc(F)cc1)c1ccc2cccnc2c1O`: the pIC50 was 7.52.
For `O=C1c2c(c(C(=O)N3CCOCC3)c3cccnc3c2O)CN1Cc1ccc(F)cc1`, the pIC50 was 7.40.
As for `CN(C)S(=O)(=O)Oc1c2c(c(O)c3ncccc13)C(=O)N(Cc1ccc(F)cc1)C2`, the figure is 6.60; as for `O=C1c2c(c(-c3c(F)cccc3F)c3cccnc3c2O)CN1Cc1ccc(F)cc1`, 6.48; as for `COc1cnc2c(O)c3c(c(OC)c2c1)CN(Cc1ccc(F)cc1)C3=O`, 7.05.
Consider `O=C(O)/C(O)=C/C(=O)c1cccc(OCc2ccccc2)c1`, for which the negative logarithm of the IC50 (pIC50) was 6.46.
With `O=C(O)/C(O)=C/C(=O)c1cc(OCc2ccccc2)cc(OCc2ccccc2)c1` the figure was 7.00; with `O=C(O)/C(O)=C/C(=O)c1cccc(Br)c1`, 5.60.
With `[N-]=[N+]=NCc1cccc(C(=O)/C=C(\O)C(=O)O)c1` the figure was 6.48.
With `COc1ccc(Cc2cccc(C(=O)/C=C(\O)C(=O)O)c2)cc1` the figure was 6.82; with `O=C(O)/C(O)=C/C(=O)c1cccc(Cc2ccccc2F)c1`, more than 7.00.
Regarding `CN(C)C(=O)C(=O)N(C)c1cc(C(=O)NCc2ccc(F)cc2)c(O)c2ncccc12`, the pIC50 was 7.40.
In the case of `O=C(O)/C(O)=C/C(=O)C1C=CSC1Cc1ccccc1` (stereo not drawn), the pIC50 was 6.74.
`O=C(O)/C(O)=C/C(=O)c1cccc(Cc2ccc(Cl)cc2)c1`: the pIC50 is 6.12.
Molecule `O=C(O)/C(O)=C/C(=O)c1cccc(Cc2cccc(F)c2)c1` gave a pIC50 of 6.60.
As for `CN1CCN(c2cc(C(=O)NCc3ccc(F)cc3)c(O)c3ncccc23)CC1`, the figure is 7.40; as for `CC(=O)N1CCN(c2cc(C(=O)NCc3ccc(F)cc3)c(O)c3ncccc23)CC1`, 7.70; as for `CC(=O)N(C)c1cc(C(=O)NCc2ccc(F)cc2)c(O)c2ncccc12`, 7.70.
As for `O=C(O)/C(O)=C/C(=O)c1cccc(Cc2ccccc2Cl)c1`, the figure is more than 7.00.
In turn, `O=C(O)/C(O)=C/C(=O)c1cccn1Cc1ccc(-c2ccccc2)cc1` showed a pIC50 of 5.12.
As for `COc1cccc(Cc2cccc(C(=O)/C=C(\O)C(=O)O)c2)c1`, the figure is 6.85; as for `O=C(O)/C(O)=C/C(=O)c1ccc(Oc2ccccc2)cc1`, 4.94; as for `O=C(O)/C(O)=C/C(=O)c1cccn1Cc1ccccc1`, 6.66.
As for `O=C(O)/C(O)=C/C(=O)c1ccn(Cc2ccccc2)c1`, the negative logarithm of the IC50 (pIC50) is 6.26.
With `O=C(O)/C(O)=C/C(=O)c1ccc(Cc2ccccc2)s1` the figure was 6.30; with `O=C(O)/C(O)=C/C(=O)c1cccc(Cc2cccc(Cl)c2)c1`, more than 7.00; with `[N-]=[N+]=NCc1cc(CN=[N+]=[N-])cc(C(=O)/C=C(\O)C(=O)O)c1`, 6.34.
As for `O=C(/C=C(\O)C(=O)O)C(=O)c1cccc(C(=O)c2ccccc2)c1`, the figure is 5.62; as for `CC(=O)N(C)CCNc1cc(C(=O)NCc2ccc(F)cc2)c(O)c2ncccc12`, 7.52; as for `O=C(O)/C(O)=C/C(=O)c1cccn1CCCc1ccccc1`, 6.30.
In turn, `O=C(O)/C(O)=C/C(=O)c1ccccc1Cc1ccccc1` showed a pIC50 of 5.25.
With `O=C(O)/C(O)=C/C(=O)c1cccc(Cc2ccc(F)cc2)c1` the figure was more than 7.00; with `O=C(O)/C(O)=C/C(=O)c1csc(Cc2ccccc2)c1`, 6.89.
